The record followed here is patent US20210221866A1, “PROTEASE-RESISTANT LIPIDATED GLP-1 ANALOGS” (MEDIMMUNE LIMITED, priority 2015, published 2021).

Where two headings read alike, the source gives them in different places. Numbered stars: 1 amine (or outer) side, 2 acyl side, 3 side chain; on linkers, the order of the positions; unused ones are H or OH. Square brackets hold non-standard residues; d marks the D form. Side chains are listed from the residue outwards. Peptide text beside a SMILES is read from it. * marks the point of attachment. C18 diacid = O=C(O)CCCCCCCCCCCCCCCCC(=O)*; γGlu = O=C(O)[C@H](CCC(=O)[*:2])N[*:1]; Stearoyl = CCCCCCCCCCCCCCCCCC(=O)*; Palmitoyl = CCCCCCCCCCCCCCCC(=O)*; αMeF = C[C@](N)(Cc1ccccc1)C(=O)O; Myristoyl = CCCCCCCCCCCCCC(=O)*; αMeK = C[C@](N)(CCCCN)C(=O)O; αMeS = C[C@](N)(CO)C(=O)O; AEEA = NCCOCCOCC(=O)O; Aib = CC(C)(N)C(=O)O

Type in all cases: cell-based
Test [1] concerns the target T1, human GLP-1 receptor (GLP-1R) (Homo sapiens, UniProt P43220).
T1 construct: expressed in transfected cells; host or cells: HEK293 cells or CHO cells
Nature of the test: cAMP assay, human GLP-1R cells. As to conditions: cAMP activity. In short, it runs like this:
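Peptide-stimulated cAMP measured by two-step HTRF after a 30 min room-temperature incubation with receptor-expressing cells (hGLP-1R, hGIPR at 1×10^5 cells/ml; hGCGR at 2×10^5 cells/ml). Duplicate dilutions; EC50 from 4-parameter logistic fit of % Delta F.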

In test [2] the target is T2, human glucagon receptor (GCGR) (Homo sapiens, UniProt P47871).
T2 construct: expressed in transfected cells; host or cells: HEK293 cells or CHO cells
Nature of the test: cAMP assay, human GCGR cells. On the procedure: (§1) Sample dilutions are made in duplicate.
(§2) A frozen cryo-vial of cells expressing the receptor of interest is thawed rapidly in a water-bath, transferred to pre-warmed assay buffer and spun at 240×g for 5 minutes. Cells are re-suspended in assay buffer at a batch-dependent optimized concentration (e.g. hGCGR cells at 2×10^5 cells/ml, hGLP-1R and hGIPR cells at 1×10^5 cells/ml).
(§3) To this, 5 μL cell suspension is added and the plates incubated at room temperature for 30 minutes.
(§4) cAMP levels are measured using a commercially available cAMP dynamic 2 HTRF kit (Cisbio, Cat #62AM4PEJ), following the two step protocol as per manufacturer's recommendations. In brief; anti-cAMP cryptate (donor fluorophore) and cAMP-d2 (acceptor fluorophore) are made up separately by diluting each 1/20 in conjugate & lysis buffer provided in the kit. 5 μL anti-cAMP cryptate is added to wells of the assay plate, and 5 μL cAMP-d2 is added to wells except non-specific binding (NSB) wells, to which conjugate and lysis buffer are added. […] EC50 values of the synthetic peptides determined in cAMP assays are then determined.
(§5) Data is transformed to % Delta F as described in the manufacturer's guidelines and analyzed by 4-parameter logistic fit to determine EC50 values. […] To compare the balance of activities at the GLP-1R and GCGR between different peptides and across different conditions, these can be correlated, where the EC50's are related to those of comparator peptides.

Test [3] has as its target T3, human glucose-dependent insulinotropic peptide receptor (GIPR) (Homo sapiens, UniProt P48546).
T3 construct: expressed in transfected cells; host or cells: HEK293 cells or CHO cells
T3 sequence (P48546 22-466): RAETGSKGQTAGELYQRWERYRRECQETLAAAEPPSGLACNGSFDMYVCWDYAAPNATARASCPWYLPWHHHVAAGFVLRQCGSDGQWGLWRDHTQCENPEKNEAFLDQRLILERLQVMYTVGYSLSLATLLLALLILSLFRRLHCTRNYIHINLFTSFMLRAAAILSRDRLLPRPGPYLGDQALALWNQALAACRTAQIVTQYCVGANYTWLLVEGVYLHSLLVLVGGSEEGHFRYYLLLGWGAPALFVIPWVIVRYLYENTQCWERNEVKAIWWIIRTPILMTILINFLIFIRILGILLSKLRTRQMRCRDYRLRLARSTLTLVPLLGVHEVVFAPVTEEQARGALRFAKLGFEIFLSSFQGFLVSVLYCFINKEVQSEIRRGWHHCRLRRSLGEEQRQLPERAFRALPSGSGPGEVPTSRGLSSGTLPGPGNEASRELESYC
Nature of the test: cAMP assay, human GIPR cells. How it is done: as §1, §2, §3, §4, §5

Setting [4] is: first determination (n1), read-out: Primary assay EC50 GLP-1R n1.
[5] abbreviates: mean of n1 and n2, read-out: Mean pM GLP-1R.
The mark [6] stands for this setting: second determination (n2), read-out: Primary assay EC50 GLP-1R n2.
The mark [7] stands for this setting: cAMP activity, second determination (n2), read-out: Primary assay EC50 Gluc-R.
[8] abbreviates: cAMP activity, first determination (n1), read-out: Primary assay EC50 GIP-R.
Where [9] appears, read: cAMP activity, second determination (n2), read-out: Primary assay EC50 GIP-R.
Setting [10] is: Table 9, bis-lipidated peptides, first replicate, read-out: Primary assay EC50 Gluc-R (n1).
Setting [11] is: Table 9, bis-lipidated peptides, second replicate, read-out: Primary assay EC50 Gluc-R (n2).
Where [12] appears, read: Table 9, bis-lipidated peptides, first replicate, read-out: Primary assay EC50 GIP-R (n1).
Where [13] appears, read: Table 9, bis-lipidated peptides, second replicate, read-out: Primary assay EC50 GIP-R (n2).

T1 sequence (P43220 24-463): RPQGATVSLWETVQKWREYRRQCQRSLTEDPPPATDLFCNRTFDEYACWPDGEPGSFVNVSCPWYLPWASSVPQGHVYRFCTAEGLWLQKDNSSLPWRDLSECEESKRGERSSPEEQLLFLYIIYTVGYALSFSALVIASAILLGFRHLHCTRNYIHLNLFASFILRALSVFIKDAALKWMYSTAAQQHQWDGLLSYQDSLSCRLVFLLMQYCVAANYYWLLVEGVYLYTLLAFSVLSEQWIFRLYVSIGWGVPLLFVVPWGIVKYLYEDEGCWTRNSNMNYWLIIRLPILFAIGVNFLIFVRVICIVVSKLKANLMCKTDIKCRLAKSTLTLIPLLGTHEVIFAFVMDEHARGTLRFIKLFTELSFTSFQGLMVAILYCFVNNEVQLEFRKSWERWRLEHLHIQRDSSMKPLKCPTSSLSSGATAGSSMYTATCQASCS
T2 sequence (P47871 26-477): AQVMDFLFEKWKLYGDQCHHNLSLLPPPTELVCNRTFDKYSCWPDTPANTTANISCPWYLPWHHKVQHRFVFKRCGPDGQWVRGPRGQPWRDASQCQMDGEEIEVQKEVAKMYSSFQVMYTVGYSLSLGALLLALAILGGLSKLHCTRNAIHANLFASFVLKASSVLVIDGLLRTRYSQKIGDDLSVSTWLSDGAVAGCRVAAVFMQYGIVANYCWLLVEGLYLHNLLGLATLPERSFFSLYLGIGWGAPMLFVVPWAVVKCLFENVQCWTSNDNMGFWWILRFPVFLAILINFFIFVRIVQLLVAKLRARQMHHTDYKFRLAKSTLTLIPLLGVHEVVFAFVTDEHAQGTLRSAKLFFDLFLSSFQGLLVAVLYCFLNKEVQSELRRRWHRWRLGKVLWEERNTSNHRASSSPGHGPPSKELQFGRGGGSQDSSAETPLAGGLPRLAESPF

In the case of `CC(C)C[C@H](NC(=O)[C@](C)(Cc1ccccc1)NC(=O)[C@H](CO)NC(=O)[C@](C)(CO)NC(=O)[C@@H](NC(=O)[C@H](CC(=O)O)NC(=O)[C@H](CO)NC(=O)[C@@H](NC(=O)[C@](C)(Cc1ccccc1)NC(=O)[C@H](CO)NC(=O)CNC(=O)[C@H](CCC(=O)O)NC(=O)C(C)(C)NC(=O)[C@@H](N)Cc1c[nH]cn1)[C@@H](C)O)C(C)C)C(=O)N[C@@H](CCC(=O)O)C(=O)NCC(=O)N[C@@H](CCC(=O)O)C(=O)N[C@@H](C)C(=O)N[C@@H](C)C(=O)N[C@@](C)(CCCCN)C(=O)N[C@@H](CCC(=O)O)C(=O)N[C@@](C)(Cc1ccccc1)C(=O)N[C@@H](CCCCNC(=O)COCCOCCNC(=O)COCCOCCNC(=O)CC[C@H](NC(=O)CCCCCCCCCCCCCCCCC(=O)O)C(=O)O)C(=O)N[C@@H](C)C(=O)N[C@@](C)(Cc1ccccc1)C(=O)N[C@H](C(=O)N[C@H](C(=O)N[C@@](C)(CCCCN)C(=O)NCC(=O)NCC(N)=O)C(C)C)C(C)C` [compound 106] (H-H[Aib]EGS[αMeF]TSDV[αMeS]S[αMeF]LEGEAA[αMeK]E[αMeF]K([AEEA-AEEA-γGlu-C18 diacid])A[αMeF]VV[αMeK]GG-NH2), the EC50 was 6500 pM in test [1] (setting [4]); 6140 pM in test [1] (setting [5]); 5790 pM in test [1] (setting [6]); not below 25.3 nM in test [2] (setting [7]); not below 25 nM in test [3] (setting [8]); not below 25.3 nM in test [3] (setting [9]).

Take `CC[C@H](C)[C@H](NC(=O)[C@](C)(Cc1ccccc1)NC(=O)[C@H](CCC(=O)O)NC(=O)[C@](C)(CCCCN)NC(=O)[C@H](C)NC(=O)[C@H](C)NC(=O)[C@H](CCC(=O)O)NC(=O)CNC(=O)[C@H](CCC(=O)O)NC(=O)[C@H](CC(C)C)NC(=O)[C@](C)(Cc1ccccc1)NC(=O)[C@H](CO)NC(=O)[C@H](CCCCNC(=O)COCCOCCNC(=O)COCCOCCNC(=O)CC[C@H](NC(=O)CCCCCCCCCCCCCCCCC(=O)O)C(=O)O)NC(=O)[C@@H](NC(=O)[C@H](CC(=O)O)NC(=O)[C@H](CO)NC(=O)[C@@H](NC(=O)[C@](C)(Cc1ccccc1)NC(=O)[C@H](CO)NC(=O)CNC(=O)[C@H](CCC(=O)O)NC(=O)C(C)(C)NC(=O)[C@@H](N)Cc1c[nH]cn1)[C@@H](C)O)C(C)C)C(=O)N[C@@H](C)C(=O)N[C@@](C)(Cc1ccccc1)C(=O)N[C@H](C(=O)N[C@H](C(=O)N[C@@](C)(CCCCN)C(=O)NCC(=O)NCC(N)=O)C(C)C)C(C)C` [compound 118]: the EC50 in test [1] (setting [4]) is 810 pM; in test [1] (setting [5]), 783 pM; in test [1] (setting [6]), 758 pM; in test [2] (setting [7]) it was not below 25.2 nM; in test [3] (setting [8]), not below 25 nM; in test [3] (setting [9]) it was not below 25.2 nM.

On to `CCCCCCCCCCCCCC(=O)N[C@@H](CCC(=O)NCCOCCOCC(=O)NCCOCCOCC(=O)NCCCC[C@H](NC(=O)[C@H](C)NC(=O)[C@@H](NC(=O)[C@](C)(Cc1ccccc1)NC(=O)[C@H](CCC(=O)O)NC(=O)[C@](C)(CCCCN)NC(=O)[C@H](C)NC(=O)[C@H](C)NC(=O)[C@H](CCC(=O)O)NC(=O)CNC(=O)[C@H](CCC(=O)O)NC(=O)[C@H](CC(C)C)NC(=O)[C@H](CCCCNC(=O)COCCOCCNC(=O)COCCOCCNC(=O)CC[C@H](NC(=O)CCCCCCCCCCCCC)C(=O)O)NC(=O)[C@H](CO)NC(=O)[C@](C)(CO)NC(=O)[C@@H](NC(=O)[C@H](CC(=O)O)NC(=O)[C@H](CO)NC(=O)[C@@H](NC(=O)[C@](C)(Cc1ccccc1)NC(=O)[C@H](CO)NC(=O)CNC(=O)[C@H](CCC(=O)O)NC(=O)C(C)(C)NC(=O)[C@@H](N)Cc1c[nH]cn1)[C@@H](C)O)C(C)C)[C@@H](C)CC)C(=O)N[C@H](C(=O)N[C@H](C(=O)N[C@@H](CCC(=O)O)C(=O)NCC(=O)NCC(N)=O)C(C)C)C(C)C)C(=O)O` [compound 408] (H-H[Aib]EGS[αMeF]TSDV[αMeS]SK([AEEA-AEEA-γGlu-Myristoyl])LEGEAA[αMeK]E[αMeF]IAK([AEEA-AEEA-γGlu-Myristoyl])VVEGG-NH2), for which the EC50 in test [2] (setting [10]), in test [2] (setting [11]), in test [3] (setting [12]) and in test [3] (setting [13]) was not below 21.5 nM throughout.

For the compound `CCCCCCCCCCCCCCCC(=O)N[C@@H](CCC(=O)NCCOCCOCC(=O)NCCOCCOCC(=O)NCCCC[C@H](NC(=O)[C@H](C)NC(=O)[C@@H](NC(=O)[C@](C)(Cc1ccccc1)NC(=O)[C@H](CCC(=O)O)NC(=O)[C@](C)(CCCCN)NC(=O)[C@H](C)NC(=O)[C@H](C)NC(=O)[C@H](CCC(=O)O)NC(=O)CNC(=O)[C@H](CCC(=O)O)NC(=O)[C@H](CC(C)C)NC(=O)[C@H](CCCCNC(=O)COCCOCCNC(=O)COCCOCCNC(=O)CC[C@H](NC(=O)CCCCCCCCCCCCCCC)C(=O)O)NC(=O)[C@H](CO)NC(=O)[C@](C)(CO)NC(=O)[C@@H](NC(=O)[C@H](CC(=O)O)NC(=O)[C@H](CO)NC(=O)[C@@H](NC(=O)[C@](C)(Cc1ccccc1)NC(=O)[C@H](CO)NC(=O)CNC(=O)[C@H](CCC(=O)O)NC(=O)C(C)(C)NC(=O)[C@@H](N)Cc1c[nH]cn1)[C@@H](C)O)C(C)C)[C@@H](C)CC)C(=O)N[C@H](C(=O)N[C@H](C(=O)N[C@@H](CCC(=O)O)C(=O)NCC(=O)NCC(N)=O)C(C)C)C(C)C)C(=O)O` [compound 409] (H-H[Aib]EGS[αMeF]TSDV[αMeS]SK([AEEA-AEEA-γGlu-Palmitoyl])LEGEAA[αMeK]E[αMeF]IAK([AEEA-AEEA-γGlu-Palmitoyl])VVEGG-NH2; N-terminus assumed), the EC50 in test [2] (setting [10]), in test [2] (setting [11]), in test [3] (setting [12]) and in test [3] (setting [13]) was not below 21.5 nM throughout.

For the compound `CCCCCCCCCCCCCCCCCC(=O)N[C@@H](CCC(=O)NCCOCCOCC(=O)NCCOCCOCC(=O)NCCCC[C@H](NC(=O)[C@H](C)NC(=O)[C@@H](NC(=O)[C@](C)(Cc1ccccc1)NC(=O)[C@H](CCC(=O)O)NC(=O)[C@](C)(CCCCN)NC(=O)[C@H](C)NC(=O)[C@H](C)NC(=O)[C@H](CCC(=O)O)NC(=O)CNC(=O)[C@H](CCC(=O)O)NC(=O)[C@H](CC(C)C)NC(=O)[C@H](CCCCNC(=O)COCCOCCNC(=O)COCCOCCNC(=O)CC[C@H](NC(=O)CCCCCCCCCCCCCCCCC)C(=O)O)NC(=O)[C@H](CO)NC(=O)[C@](C)(CO)NC(=O)[C@@H](NC(=O)[C@H](CC(=O)O)NC(=O)[C@H](CO)NC(=O)[C@@H](NC(=O)[C@](C)(Cc1ccccc1)NC(=O)[C@H](CO)NC(=O)CNC(=O)[C@H](CCC(=O)O)NC(=O)C(C)(C)NC(=O)[C@@H](N)Cc1c[nH]cn1)[C@@H](C)O)C(C)C)[C@@H](C)CC)C(=O)N[C@H](C(=O)N[C@H](C(=O)N[C@@H](CCC(=O)O)C(=O)NCC(=O)NCC(N)=O)C(C)C)C(C)C)C(=O)O` [compound 410] (H-H[Aib]EGS[αMeF]TSDV[αMeS]SK([AEEA-AEEA-γGlu-Stearoyl])LEGEAA[αMeK]E[αMeF]IAK([AEEA-AEEA-γGlu-Stearoyl])VVEGG-NH2; N-terminus assumed), the EC50 in test [2] (setting [10]), in test [2] (setting [11]), in test [3] (setting [12]) and in test [3] (setting [13]) was not below 21.5 nM each time.
